Measurements: patent US4654362A, “Derivatives of 2,2'-iminobisethanol” (Janssen Pharmaceutica, N.V., priority 1984, dated 1987)

Experiments:
guinea pig trachea (β2) = molecular target: T1, guinea pig trachea (β2) (Cavia porcellus, UniProt Q8K4Z4); test: Guinea-pig tracheal ring test: inhibition of isoprenaline-induced relaxation (β2-adrenergic receptor blocking activity, in vitro); conditions: for β2 /β1: ratio of ED50 trachea (β2) to ED50 right atrium (β1), index of cardioselectivity; for IC50: tracheal ring, methacholine 1 μg/ml, isoprenaline 0.08 μg/ml, 30 min, 35° C., probit analysis, read-out: ED50 value on guinea pig trachea (β2) (converted)
T1 construct: The trachea was dissected from guinea-pigs; from tissue; host or cells: guinea-pig tracheal rings (tracheal smooth muscle)
Description: 2. Guinea-pig tracheal ring (β2)
The trachea was dissected from guinea-pigs (400±50 g). Four rings, approximately 8 mm. in width, were then cut from each trachea. Cartilaginous parts of the tracheal ring were mounted horizontally between two metal rods, one of which was attached to a glass organholder, the other rod being connected to a Grass isometric transducer. Using such a technique the tracheal smooth muscle is suspended optimally i.e. midway between the cartilaginous parts. […] The preparation was maintained at tension of 1.5 g throughout the experiment. Tension changes recorded were thus an expression of contraction or relaxation. After a stabilisation period of 30 min. contraction was induced by adding methacholine (1 μg/ml) to the bath for a 10 min. period. […] This procedure was repeated twice before adding the drug (t-33'; t-19') and once 30 min. after addition of the drug. During the incubation period any direct effects of the drug were measured.
The ratio of the ED50 -values obtained in respectively the tracheal ring test (β2) and in the right atrium test (β1) may be considered as an index of the cardioselectivity of the test drug.

guinea pig atrium (β1) = molecular target: T2, guinea pig atrium (β1) (Cavia porcellus, UniProt H0W3H1); test: Guinea-pig right atrium test: inhibition of isoprenaline-induced increase in heart rate (β1-adrenergic receptor blocking activity, in vitro); conditions: isolated right atrium, 30 min incubation, 37.5° C., estimated graphically, read-out: ED50 value on guinea pig atrium (β1) (converted)
T2 construct: Spontaneously beating right atria were dissected from guinea-pigs; from tissue; host or cells: guinea-pig right atrium (strip including the sinoatrial node)
Description: 1. Guinea-pig right atrium (β1)
Spontaneously beating right atria were dissected from guinea-pigs (400±50 g). A triangular strip of atrium, including the sinoatrial node was excised together with the anterior vena cava.
The vena was fixed to a glass muscle holder and the opposite atrial muscle was connected to a Grass isometric transducer. […] Heart rate and contractile force were recorded by means of a Grass FT03C isometric transducer. Output signals amplified by an isometric transducer amplifier (J.S.I.) via a cardiotachometer (J.S.I.) were recorded on Honeywell XYY' recorder.
After washing out isoprenaline a stabilisation period of 15 min. was allowed. A drug was then added to the bath fluid for 30 min. During this incubation period possible direct chronotropic and inotropic effects of the drug were determined. Following this, a second dose-response curve for isoprenaline was produced by infusion during 10 minutes (b). The slope of the increase in rate was graphically estimated for each period of isoprenaline addition and the ratio b/a was calculated. Based on solvent experiments a ratio of less than 0.70 was considered as the criterion of inhibitory activity. ED50 -values were estimated graphically.

T2 sequence (H0W3H1 1-470): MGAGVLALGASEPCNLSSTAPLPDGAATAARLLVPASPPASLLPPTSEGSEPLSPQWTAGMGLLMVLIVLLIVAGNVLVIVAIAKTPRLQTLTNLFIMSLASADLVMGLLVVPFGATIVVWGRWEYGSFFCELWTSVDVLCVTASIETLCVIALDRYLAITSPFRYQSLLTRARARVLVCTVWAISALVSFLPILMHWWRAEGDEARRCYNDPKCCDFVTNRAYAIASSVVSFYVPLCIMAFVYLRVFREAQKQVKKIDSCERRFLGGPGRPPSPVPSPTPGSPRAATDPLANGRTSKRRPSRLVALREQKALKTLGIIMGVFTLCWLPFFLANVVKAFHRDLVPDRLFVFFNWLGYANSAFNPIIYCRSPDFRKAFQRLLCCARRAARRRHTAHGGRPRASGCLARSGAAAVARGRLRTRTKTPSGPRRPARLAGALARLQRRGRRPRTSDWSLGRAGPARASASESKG
T1 sequence (Q8K4Z4 whole entry): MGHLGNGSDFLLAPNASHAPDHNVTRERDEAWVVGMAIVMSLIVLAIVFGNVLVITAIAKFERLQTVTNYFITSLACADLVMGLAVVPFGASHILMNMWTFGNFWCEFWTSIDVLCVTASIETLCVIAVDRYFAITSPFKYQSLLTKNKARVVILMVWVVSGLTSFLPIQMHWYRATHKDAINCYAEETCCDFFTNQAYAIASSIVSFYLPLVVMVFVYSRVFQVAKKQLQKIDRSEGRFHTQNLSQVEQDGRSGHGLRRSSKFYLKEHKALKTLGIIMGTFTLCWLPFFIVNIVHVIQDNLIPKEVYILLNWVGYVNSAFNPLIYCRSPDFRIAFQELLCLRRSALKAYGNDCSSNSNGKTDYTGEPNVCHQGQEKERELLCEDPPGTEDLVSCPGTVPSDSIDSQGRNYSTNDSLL

SMILES | β2 /β1 (guinea pig trachea (β2)) | IC50 (guinea pig trachea (β2)) [nM] | IC50 (guinea pig atrium (β1)) [nM]
CC1(C(O)CNCC(O)C2CCc3ccccc3O2)CCc2ccccc2O1 (stereo not drawn) [Compound 140, (A,B)-α-[[[2-(3,4-dihydro-2H-1-benzopyran-2-yl)-2-hydroxyethyl]amino]methyl]-3,4-dihydro-2-methyl-2H-1-benzopyran-2-methanol ethanedioate (1:1). monohydrate] |  |  | ≤ 6.52
Cc1ccc2c(c1)CCC(C(O)CNCC(O)C1CCc3cc(C)ccc3O1)O2 (stereo not drawn) [Compound 113] |  |  | 6.29
OC(CNCC(O)C1CCc2cc(Br)ccc2O1)C1CCc2cc(Br)ccc2O1 (stereo not drawn) [Compound 10, (B,B)-α,α'-[iminobismethylene]bis[6-bromo-3,4-dihydro-2H-1-benzopyran-2-methanol]] |  |  | 75.9
Cc1cc(C)c2c(c1)OC(C(O)CNCC(O)C1CCc3ccccc3O1)CC2 (stereo not drawn) [Compound 103] | > 4000 | > 25200 | 6.29
Cc1ccc2c(c1)CCC(C(O)CNCC(O)C1CCc3cc(C)ccc3O1)O2 (stereo not drawn) [Compound 85] | 5,652 | 3270 | 0.579
N#Cc1ccc2c(c1)CCC(C(O)CNCC(O)C1CCc3ccccc3O1)O2 (stereo not drawn) [Compound 51] | > 252 | > 1600 | 6.34
CS(=O)(=O)Nc1ccc2c(c1)CCC(C(O)CNCC(O)C1CCc3ccccc3O1)O2 (stereo not drawn) [Compound 135] |  |  | 136
CC(=O)Nc1ccc2c(c1)CCC(C(O)CNCC(O)C1CCc3ccccc3O1)O2 (stereo not drawn) [Compound 95] | 129 | 93.8 | 0.727
CC(=O)Nc1ccc2c(c1)CCC(C(O)CNCC(O)C1CCc3ccccc3O1)O2 (stereo not drawn) [Compound 94] |  |  | ≥ 5.86
Cc1cc(C)c2c(c1)OC(C(O)CNCC(O)C1CCc3ccccc3O1)CC2 (stereo not drawn) [Compound 106] | > 1000 |  | 
Oc1ccc2c(c1)CCC(C(O)CNCC(O)C1CCc3cc(O)ccc3O1)O2 (stereo not drawn) [Compound 133] |  |  | 1.57
OC(CNCC(O)C1CCc2ccc3c(c2O1)CCCC3)C1CCc2ccccc2O1 (stereo not drawn) [Compound 110] |  |  | 5.9
OC(CNCC(O)C1CCc2cc(F)ccc2O1)C1CCc2cc(F)ccc2O1 (stereo not drawn) [Compound 84] |  | > 24700 | 
Cc1cc(C)c2c(c1)OC(C(O)CNCC(O)C1CCc3ccccc3O1)CC2 (stereo not drawn) [Compound 104] | > 1923 | > 6290 | 3.27
OC(CNCC(O)C1CCc2cc(Br)ccc2O1)C1CCc2ccccc2O1 (stereo not drawn) [Compound 63] |  |  | < 89.2

Continued, in another order:

β2 /β1 (guinea pig trachea (β2)) | IC50 (guinea pig trachea (β2)) [nM] | SMILES | IC50 (guinea pig atrium (β1)) [nM]
≥ 25,000 | ≥ 26100 | Cc1ccc2c(c1)CCC(C(O)CNCC(O)C1CCc3ccccc3O1)O2 (stereo not drawn) [Compound 90] | 1.04
1000 | 804 | Oc1ccc2c(c1)CCC(C(O)CNCC(O)C1CCc3ccccc3O1)O2 (stereo not drawn) [Compound 130] | 0.804
4,074 |  | OC(CNCC(O)C1CCc2ccccc2O1)C1CCc2ccccc2O1 (stereo not drawn) [Compound 77] | 1.46
12,500 | 8120 | OC(CNCC(O)C1CCc2ccccc2O1)C1CCc2ccccc2O1 (stereo not drawn) [Compound 74, (A^+ A^+)-α,α'-[iminobis(methylene)]bis[3,4-dihydro-2H-1-benzopyran-2-methanol]] | 0.65
3,938 | 1710 | OC(CNCC(O)C1CCc2ccccc2O1)C1CCc2ccccc2O1 (stereo not drawn) [Compound 81] | 0.433
13,157 | 6770 | OC(CNCC(O)C1CCc2ccccc2O1)C1CCc2ccccc2O1 (stereo not drawn) [Compound 79] | 0.514
> 1,000 | > 6770 | OC(CNCC(O)C1CCc2ccccc2O1)C1CCc2ccccc2O1 (stereo not drawn) [Compound 82] | 6.77
4,166 | 12600 | CC(O)(CNCC(C)(O)C1CCc2ccccc2O1)C1CCc2ccccc2O1 (stereo not drawn) [Compound 86] | 3.02
7,042 | 13000 | Cc1ccc2c(c1)OC(C(O)CNCC(O)C1CCc3ccccc3O1)CC2 (stereo not drawn) [Compound 97] | 1.85
> 1000 | > 27100 | OC(CNCC(O)C1CCc2ccccc2O1)C1CCc2ccccc2O1 (stereo not drawn) [Compound 138, (A,A)-α-[[[2-(3,4-dihydro-2H-1-benzopyran-2-yl)-2-hydroxyethyl]amino]methyl]-3,4-dihydro-2H-1-benzopyran-2-methanol ethanedioate (1:1)] | 27.1
6,250 | 12900 | OC(CNCC(O)C1CCc2cc(F)ccc2O1)C1CCc2ccccc2O1 (stereo not drawn) [Compound 91] | 2.06
20,698 | 23200 | Cc1ccc2c(c1)CCC(C(O)CNCC(O)C1CCc3ccccc3O1)O2 (stereo not drawn) [Compound 89] | 1.12
2,154 | 7580 | OC(CNCC(O)C1CCc2ccccc2O1)C1CCc2ccccc2O1 (stereo not drawn) [Compound 75] | 3.52
≥ 15,873 | ≥ 26100 | Cc1ccc2c(c1)OC(C(O)CNCC(O)C1CCc3ccccc3O1)CC2 (stereo not drawn) [Compound 99] | 1.64
2,400 | 15600 | Cc1ccc2c(c1)OC(C(O)CNCC(O)C1CCc3ccccc3O1)CC2 (stereo not drawn) [Compound 98] | 6.52
 | ≥ 27100 | OC(CNCC(O)C1CCc2ccccc2O1)C1CCc2ccccc2O1 (stereo not drawn) [Compound 88] | 
13,750 | 5740 | Cc1ccc2c(c1)CCC(C(O)CNCC(O)C1CCc3ccccc3O1)O2 (stereo not drawn) [Compound 93] | 0.417
> 5,435 |  | OC(CNCC(O)C1CCc2ccccc2O1)C1CCc2ccccc2O1 (stereo not drawn) [Compound 83] | 1.25
2,614 | 5950 | OC(CNCC(O)C1CCc2ccccc2O1)C1CCc2ccccc2O1 (stereo not drawn) [Compound 76] | 2.3
12,500 | 13000 | CC(O)(CNCC(O)C1CCc2ccccc2O1)C1CCc2ccccc2O1 (stereo not drawn) [Compound 92] | 1.04
108 | 328 | CC(=O)Nc1ccc2c(c1)CCC(C(O)CNCC(O)C1CCc3ccccc3O1)O2 (stereo not drawn) [Compound 96] | 3.05
